The values below come from PubChem BioAssay (NCI).

Common to all, as to experiment: NCI anticancer screen, dose series, 48 h
Assay [1] concerns K-562 leukemia.
The test system of assay [2] is T-47D breast.
Assay [3] has as its system SF-268 CNS.
The test system of assay [4] is NCI-H23 lung.
The test system of assay [5] is OVCAR-4 ovarian.
Assay [6] has as its system MDA-MB-435.
For assay [7], the system named is MDA-N.
For assay [8], the system named is 786-0 renal.
The subject of assay [9] is MOLT-4 leukemia.

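1) Cells in 96-well plates. 2) Compound, 48 h, 5 concentrations. 3) Linear interpolation between surrounding doses. 4) Unreached endpoint = highest concentration. At the GI50, growth is halved. TGI marks complete inhibition of growth.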

In the case of `CCN(CC)CC(C)Nc1ccc([N+](=O)[O-])c2sc3ccccc3c(=O)c12` (stereo not given), the GI50 was 1.46 µM in assay [1]; 2.05 µM in assay [2]; 2.71 µM in assay [3]; 2.42 µM in [4]; 3.48 µM in assay [5]; 2.15 µM in assay [6]. The TGI in assay [1] was 3.74 µM; in assay [2], 13.2 µM; in assay [3], 18.5 µM; in [4], 16.1 µM; in assay [5] it was > 100 µM; in assay [6], 8.33 µM.

With `C[C@]12CC[C@@H]3c4ccc(OP(=O)(O)O)cc4CC[C@H]3[C@@H]1CCC2=O`, the TGI in assay [1], in assay [2], in assay [7], in [8], in assay [3] and in assay [4] was > 100 µM each time. The TGI in assay [5], in [9] and in assay [6] was > 100 µM each time.

With `CC[C@H]1C=CCC[C@@]2(C[C@@H]3CC[C@@H]4[C@H](C(=O)OCCCCCCCCCCCCCCCC(=O)O)[C@]5(CCC[C@@H](C)O5)NC(=[N+]34)N2)O1`, the TGI in assay [1] came to 5.73 µM; in assay [2], 11.9 µM; in [7], 7.68 µM; in [8], 0.418 µM; in assay [3], 3.07 µM; in assay [4] it was 4.83 µM. Further, the TGI in assay [5] amounted to 6.47 µM; in assay [9], 2.84 µM; in assay [6] it was 6.27 µM.

Turning to `O=S(=O)(O)c1ccc2cccc(N=Nc3c(O)ccc4ccccc34)c2c1`, the TGI in [1], in [2], in assay [7], in assay [8], in assay [3] and in assay [4] was > 100 µM in each case. Moreover, the TGI in assay [5], in assay [9] and in assay [6] was > 100 µM throughout.

Regarding `CC1SC(c2ccccc2)N(CCc2cccs2)C1=O` (stereo not given), the GI50 in [1] was 3.94 µM; in assay [2], 2.16 µM; in assay [3] it was 3.56 µM; in [4] it was 3.23 µM; in assay [5] it was 2.45 µM; in assay [9] it was 2.98 µM. Also, the GI50 in assay [6] is 3.63 µM. The TGI in assay [1] was > 100 µM; in assay [2] it was 18.7 µM; in [3] it was 16.1 µM; in assay [4] it was 15.1 µM; in [5], 13 µM; in [9], 12.4 µM. Besides, the TGI in assay [6] amounted to 16.7 µM.

For `COC(=O)C1=CC2CCCC1(O)C(C(C)=O)C2` (stereo not given), the TGI was > 100 µM in [1]; > 100 µM in assay [2]; > 100 µM in [7]; 41.3 µM in assay [8]; > 67.3 µM in assay [3]; > 100 µM in [4]. The TGI in [5] was > 100 µM; in assay [9], 43.8 µM; in [6] it was > 100 µM.

`COc1ccc2nc(-n3c(/C=C/c4ccccc4O)nc4ccccc4c3=O)sc2c1`: the TGI in assay [1] is 59.6 µM; in assay [7] it was 36.5 µM; in assay [8], > 100 µM; in assay [3], > 100 µM; in assay [4], > 100 µM; in assay [5], > 100 µM. Moreover, the figures for the TGI in assay [9] and in assay [6] were > 100 µM and 49.2 µM, respectively.

As for `CCSCCC(N)C(=O)O` (stereo not given), the TGI in [1], in [2], in assay [7], in assay [8], in assay [3] and in [4] was > 100 µM each time. The TGI in assay [5], in assay [9] and in assay [6] was > 100 µM throughout.

As for `O=C(N/N=C(/c1ccccc1)C(F)(F)F)c1ccncc1`, the TGI in assay [1], in assay [2], in assay [7], in assay [4], in [9] and in assay [6] was > 100 µM in each case.

Regarding `CCOC(=O)CSc1nc(N)c2c(-c3ccc(OC)c(OC)c3)c3c(nc2n1)CCCC3`, the TGI in assay [1], in [2], in assay [7], in [3], in assay [4] and in assay [5] was > 100 µM throughout. For the same molecule, the TGI in [9] and in assay [6] was > 100 µM each time.

Turning to `CCC1C(C#N)=C(N)OC2=C1C(=O)CC(C)(C)C2` (stereo not given), the TGI in [7], in assay [8], in assay [3], in assay [4], in assay [5] and in [9] was > 100 µM in each case. The TGI in assay [6] was > 100 µM.

For the molecule `N=c1c2c(C(N)=O)cn(C3OC(CO)C(O)C3O)c2ncn1O` (stereo not given), the TGI amounted to 3.69 µM in [2]; 1.08 µM in [8]; 0.358 µM in assay [4]; 6.81 µM in assay [5]; 0.491 µM in [9]; 0.74 µM in [6].

Take `N=C(N)c1ccc(-c2ccc(-c3cc(Cl)cc(Cl)c3)o2)nc1`: the GI50 in assay [1] is 1.5 µM; in [3], 1.82 µM; in [4], 1.96 µM; in [9], 2.46 µM; in assay [6], 1.76 µM. In addition, the TGI in assay [1] turned out to be 3.88 µM; in assay [3], 3.46 µM; in assay [4], 3.93 µM; in [9], 5.05 µM; in [6], 3.38 µM.

Turning to `COc1ccc(/C(=C2/O[C@@H]([C@H]3COC(C)(C)O3)[C@H]3OC(C)(C)O[C@@H]23)c2cc(OC)c(OC)c(OC)c2)cc1O`, the GI50 in [1] was 6.28 µM; in assay [2], 44.3 µM; in assay [3], 7.95 µM; in [4] it was 21.8 µM; in [5], 37.5 µM; in assay [9] it was 24.2 µM. Further, the GI50 in assay [6] is 2.15 µM. For the same molecule, the TGI was > 100 µM in assay [1]; > 100 µM in assay [2]; 53.6 µM in [3]; 74.9 µM in assay [4]; > 100 µM in [5]; > 100 µM in assay [9]. In addition, the TGI in [6] came to 5.54 µM.

As for `O=C(CCCCCCC(=O)Nc1ccc(N(CCCl)CCCl)cc1)NO`, the GI50 is 1.75 µM in assay [1]; 1.63 µM in [2]; 1.08 µM in [3]; 2.1 µM in [4]; 3.37 µM in assay [5]; 0.421 µM in [9]. In addition, in assay [6], the GI50 is 1.87 µM. For the same molecule, the TGI in assay [1] is 12.3 µM; in [2], 7.37 µM; in assay [3], 3.82 µM; in [4], 8.64 µM; in assay [5], 32.4 µM; in assay [9], 4.26 µM. Further, in [6], the TGI stood at 12 µM.

`COc1ccc2nc(-c3ccc(-c4noc(-c5cc(OC)c(OC)c(OC)c5)n4)cc3)[nH]c2c1`: the GI50 in assay [1] was 1.2 µM; in [2], 14.7 µM; in [3], 7.13 µM; in assay [4], 4.1 µM; in assay [5] it was 1.88 µM; in assay [9], 5.29 µM. The GI50 in [6] was 4.27 µM. Further, the TGI was > 100 µM in assay [1]; 35.9 µM in assay [2]; 45.6 µM in assay [3]; 20 µM in [4]; 4.79 µM in [5]; 59.1 µM in assay [9]. In assay [6], this molecule had a TGI of 39.8 µM.

Regarding `CNC(=O)OC(C)CN1c2ccccc2Sc2ccc(Cl)cc21` (stereo not given), the TGI in [1], in [2], in assay [7], in [3], in assay [4] and in assay [5] was > 10 µM throughout. The TGI in assay [9] and in assay [6] was > 10 µM each time.

For the molecule `COc1cc(/C=C/C(=O)c2ccc(NS(=O)(=O)c3cc([N+](=O)[O-])ccc3C)cc2)cc(OC)c1OC`, the TGI came out at 10.9 µM in assay [1]; 38.6 µM in assay [2]; 13 µM in [7]; 7.14 µM in assay [8]; 11 µM in [4]; 13.5 µM in [5]. Besides, the TGI came to 6.58 µM in assay [9] and 16.3 µM in [6].

Turning to `CN1CC[C@@]2(c3cccc(O)c3)CC(=O)/C(=C/c3ccccc3)[C@H]1C2`, the TGI in assay [1] was determined as 6.52 µM; in assay [7] it was 16.4 µM; in assay [8], 25 µM; in assay [3], 19.7 µM; in assay [4], 46.4 µM; in assay [5], 22.2 µM. The TGI in assay [9] was found to be 6.21 µM; in assay [6], 13.9 µM.

On to `Cn1c(=O)c2c(nc(-n3nc(-c4ccc(Cl)cc4)cc3N)n2C)n(C)c1=O`, for which the TGI in assay [1], in [7], in assay [8], in assay [3], in assay [4] and in assay [5] was > 100 µM each time. Also, the TGI in assay [9] and in assay [6] was > 100 µM in each case.
